Consider five compounds from patent US9682994B2, “Inhibitors of retroviral replication” (The Scripps Research Institute, priority 2011, dated 2017).

SMILES strings stand for the structures.

The test system of one data set is HIV-1 pNL43. Kind of data set: HIV-1 replication in PHA/IL-2 stimulated human PBMCs, p24 ELISA. The conditions noted are these: p24 ELISA, 5 days post infection. Format: cell-based. The method, then:
Freshly isolated uninfected human PBMCs were stimulated with PHA for two days, washed, and grown from then on in IL-2 alone. […] Antigen p24 was measured 5 days post infection using a sandwich ELISA kit.
To isolate PBMCs, 24 ml of total blood diluted two fold in RPMI or PBS were carefully layered over 12 ml of Ficoll-paque and centrifuged at 2000 rpm for 20 min (brakes off). Resultant layers are approximately from top to bottom: plasma-platelets-PBMC-Ficoll-red blood cells (with granulocytes). Most of the plasma was pipetted off and discarded. The buffy coat with PBMC's was carefully removed from 3 large (50 ml) tubes and transferred to a new 50 ml tube. The remaining Ficoll and red blood cells were discarded in closed tubes. Enough PBS was added to the PBMCs to make up 50 ml and centrifuged at 1200 rpm for 10 min, brakes on. The supernatant was decanted and the pellet was loosened and washed twice with PBS. Washed pellet was recovered in 30 ml of RPMI 1640 supplemented with 10% serum, 1% Penicillin-streptomycin and mixed well. PBMCs were counted and plated at 1×10^6 cells/ml. To activate the PBMCs, PHA (phytohaemagglutinin) was added at 3 μg/ml. Two to three days later add Interleukin 2 (IL2) at 3×10^−3 μg/ml.
PHA activated PBMCs were centrifuged and recovered at 6×10^6 cells in 3 ml complete RPMI. Then 3 ml of viral supernatant was added and incubated for 4 h at 37° C. After this period, cells were centrifuged, washed 3 times with PBS and recovered in 3 ml complete RPMI. PBMCs were plated at 0.5 ml per well in a 6-well plate, and 0.5 ml media with DMSO control or anti-viral control at 2× final concentration was added. IL-2 was added at 3×10^−3 μg/ml. Supernatant was recovered for p24 assay every 3-4 days post infection. Cells were split at 1×10^6 cell per ml every 5-7 days.
HIV-1 transcription is intimately linked to T-cell activation due to shared motifs between the HIV-LTR and the regulatory regions in induced genes, namely NF-κB. A large variety of T cell stimuli activate NF-κB, including PHA, IL-2 and tumor necrosis factor alpha (TNF-α).

Data set [1] deals with HIV-1 pNL4-3. In words: Acute HIV-1 infection, HeLa-CD4-LTR-LacZ reporter CPRG assay. Format: cell-based. The method, then: Forty-eight hours post infection a quantitative chlorophenol red-β-D-galactopyranoside (CPRG) assay was performed.
Twenty-four hours later HIV-1 pNL4-3 was added to the cells of both experiment sets (MOI>>10) in the presence of testing compound or DMSO control. CPRG assay performed 48 h later.
HeLa-CD4 cells were infected with HIV-1 pNL4-3 in the presence of the indicated compounds or DMSO. Forty hours post infection a CPRG assay was performed. […] Error bars represent standard deviation.
P42 cells were plated at 1×10^4 cells per well of 96 well. Twenty-four hours later HIV-1 pNL4-3 was added to the wells in the presence of testing compound or DMSO control in a total volume of […] Forty hours post infection cells were disrupted in lysis buffer (60 mM Na2HPO4, 40 mM NaH2PO4, 10 mM KCl, 10 mM MgSO4, 2.5 mM EDTA, 50 mM β-mercaptoethanol, 0.125% Nonidet P-40) and a quantitative chlorophenol red-β-D-galactopyranoside (CPRG)-based (Boehringer Mannheim) assay was performed. The cell extracts were incubated in a reaction buffer (0.9 M phosphate buffer [pH 7.4], 9 mM MgCl2, 11 mM β-mercaptoethanol, 7 mM CPRG) until a red color developed (from approximately 10 min to 4 h) and measured with an LP400 (Becton Dickinson) plate reader at 572 nm. Experiments were performed in triplicate.
Transcription of the HIV-1 provirus is regulated by both viral and cellular transcription factors. Before Tat is produced, low-level basal transcription from the viral promoter is initiated by cellular factors, such as the nuclear factor-kappa B (NF-kB), Sp1, TATA-binding protein and RNAPII. A desirable Tat inhibitor should block Tat-mediated activation of the viral promoter without affecting its basal transcription, which would result in cellular toxicity, given the shared transcription factors of the HIV promoter and cellular genes.

The next data set concerns HeLa-CD4 cells. In words: MTT mitochondrial metabolic activity (cell viability). Format: cell-based.
A further data set has as its system Tat. In words: Biotinylated compound streptavidin-bead pull-down of Tat. Format: binding, HIV-1. The conditions noted are these: for competition for binding of recombinant Tat to Bio-dCA: excess competitor. The method, then:
(§1) HEK293T cells were transfected with flag-tagged Tat 101 a.a. (Tat-F-101-wt), a shorter Tat version with 86 a.a. (Tat-F-86-wt), Tat 86 a.a. mutated in the basic domain (Tat-F-BRM), flag-tagged CDK11 (CDK11-F), flag-tagged 9G8 (9G8-F) and empty vector control.
Recombinant Tat protein was incubated with Bio-dCA streptavidin-coated beads in the presence or absence of an excess of non-biotinylated dCA (represented as molar equivalent [eq.] of Bio-dCA). Raltegravir and recombinant GST-9G8 were used as a negative control competitor or as negative protein-binding control, respectively.
(§2) DYNABEADS® MYONE™ Streptavidin T1 (12.5 μl slurry) (Invitrogen) were pre-saturated with 1.88 μl of 1 mM in DMSO of Biotin alone or Bio-dCA and incubated for 1 h at room temperature with orbital rocking, plus an additional 30 min with Biotin (0.63 μl of 1 mM in DMSO). Protein extracts (250 μg per sample) were incubated with the pre-saturated beads in lysis buffer supplemented with 0.1% BSA for 1 h at 4° C. with orbital rocking. After incubation, the beads were washed three times with lysis buffer.
For the pull-down of recombinant Tat (#2222 of NIH) and GST-9G8, streptavidin-agarose beads (40 μl slurry) were pre-saturated with 1.5 μl of 1 mM in DMSO, Biotin alone, or Bio-dCA and incubated for 1 h at room temperature. […] After incubation, the beads were washed three times with PBS and proteins were eluted as before.

In data set [2] the test system is HIV-1 pNL4-3. Kind of data set: Chronically HIV-1 infected HeLa-CD4 cells, viral RNA by qRT-PCR / p24. Format: cell-based. The note with it: Human immunodeficiency virus 1; read-out: EC50 for abrogating chronic HIV infection. On the procedure:
FIG. 1G: p24 antigen quantification. Viral supernatants recovered from cells described in FIG. 1B, grown for 60 days, were assayed for their p24 antigen content using a sandwich ELISA kit. Error bars represent standard deviations.
First-strand cDNA from RNA for qPCR was prepared using […]™ first-strand cDNA kit (Invitrogen), following the manufacturer's instructions, using approximately 5 μg of RNA as starting material and random hexamers as first-strand primers. Quantitative PCR was performed with an aliquot of cDNA as template, using […]® 480 SYBR Green I Master (Roche) in a 20 μL reaction according to the manufacturer's instructions. […] The primers used were as follows: […]
Such an early time point rules out de novo infections. […] This conclusion was further supported by the fact that treatment of cells that were chronically infected, and therefore continuously shedding the virus (without incurring new infections, due to down-regulation of CD4 from the cell surface), reduced virus production to undetectable levels (FIG. 1F). […] Results were similar when viral release from cells treated for 60 days were measured by p24 enzyme-linked immunosorbent assay (ELISA) (FIG. 1G).

For data set [3], the system named is basic region Tat mutant (Tat-1 BRM). In words: Biotinylated compound pull-down of basic region Tat mutant. Format: binding, HIV-1. On the procedure: as §1, §2
The target in data set [4] is T1, DNA-dependent protein kinase (DNA-PK) catalytic subunit (Homo sapiens, UniProt P78527).
T1 construct: endogenous in cells; host or cells: P42 (HeLa-CD4-LTR-LacZ) cells; HEK293T cells
In words: Bio-CA pull-down / mass spectrometry, DNA-PK. Format: binding. On the procedure:
FIG. 14: Bio-CA associated proteins. […] After SDS-PAGE analysis and Coomassie staining, gel slices were trypsin-digested and sent to mass spectrometry analysis.
To identify cellular proteins associated with CA, a biotinylated form of the compound (Bio-CA) was used. […] The Bio-CA was used to cover streptavidin-coated magnetic beads to pull down interacting proteins from either uninfected or chronically infected lysates of cells grown in the presence or absence of CA for 48 hours (FIG. 14D). The identity of the proteins pulled down under the different conditions was determined by HPLC MS/MS analysis. The proteins were identified with a greater than 95% confidence using a proprietary Scripps proteomics software package for protein identification, statistical analysis, and mass/peptide sequence correlation. The HIV proteome was added to the proteomics software search database before analysis. Many proteins were identified in uninfected untreated and in chronically untreated samples (approximately 300), however only 53 were displaced by more than 50% by the presence of CA. Of these 53 proteins, it appears that at least 2 may have a role in HIV-1 replication: DNA-dependent protein kinase catalytic subunit (DNA-PK) and helicase like transcription factor (HLTF).

In another data set the test system is CMV and MLV promoters. Kind of data set: Transcription from CMV and MLV promoters. Format: cell-based. An excerpt: DNA-PK was identified as a binding partner of CA by mass spectrometry and further confirmation of this interaction was provided by performing a pull down assay (FIG. 15). Without wishing to be bound by theory, it was hypothesized that part of the mechanism by which CA inhibits HIV replication is by blocking the accrued DNA-PK phosphorylation of Sp1 mediated by Tat with a consequent reduction in both basal and Tat-mediated transcriptional activation of the HIV LTR promoter. Sp1 is thought to be essential for basal transcription and Tat-mediated activation of HIV-1.

The test system of data set [5] is human umbilical vein endothelial cells (HUVECs). The conditions noted are these: read-out: average half maximal inhibitory concentration (IC50), anti-proliferative; cited from earlier work.
Data set [6] concerns the target CDK11 (Homo sapiens, UniProt Q9BWU1). The conditions noted are these: cited from earlier work.
The target of the next data set is CDK8 (Homo sapiens, UniProt P49336). The conditions noted are these: cited from earlier work.
Chain of CDK8 (P49336 whole entry): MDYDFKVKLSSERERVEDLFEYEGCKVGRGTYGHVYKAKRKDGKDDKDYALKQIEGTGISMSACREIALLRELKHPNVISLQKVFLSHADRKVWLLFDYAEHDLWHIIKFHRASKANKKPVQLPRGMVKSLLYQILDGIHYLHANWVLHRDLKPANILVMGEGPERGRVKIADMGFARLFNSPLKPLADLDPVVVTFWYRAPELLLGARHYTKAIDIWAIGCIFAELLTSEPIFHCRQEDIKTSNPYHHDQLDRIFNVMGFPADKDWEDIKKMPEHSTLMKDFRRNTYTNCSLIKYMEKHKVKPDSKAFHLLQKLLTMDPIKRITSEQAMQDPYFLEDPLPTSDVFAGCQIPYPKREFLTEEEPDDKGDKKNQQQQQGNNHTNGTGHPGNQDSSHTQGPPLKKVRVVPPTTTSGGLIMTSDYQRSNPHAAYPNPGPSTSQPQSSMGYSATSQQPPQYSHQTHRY
The target in a further data set is ROCK II (Homo sapiens, UniProt O75116). The note with it: cited from earlier work.
Chain of ROCK II (O75116 whole entry): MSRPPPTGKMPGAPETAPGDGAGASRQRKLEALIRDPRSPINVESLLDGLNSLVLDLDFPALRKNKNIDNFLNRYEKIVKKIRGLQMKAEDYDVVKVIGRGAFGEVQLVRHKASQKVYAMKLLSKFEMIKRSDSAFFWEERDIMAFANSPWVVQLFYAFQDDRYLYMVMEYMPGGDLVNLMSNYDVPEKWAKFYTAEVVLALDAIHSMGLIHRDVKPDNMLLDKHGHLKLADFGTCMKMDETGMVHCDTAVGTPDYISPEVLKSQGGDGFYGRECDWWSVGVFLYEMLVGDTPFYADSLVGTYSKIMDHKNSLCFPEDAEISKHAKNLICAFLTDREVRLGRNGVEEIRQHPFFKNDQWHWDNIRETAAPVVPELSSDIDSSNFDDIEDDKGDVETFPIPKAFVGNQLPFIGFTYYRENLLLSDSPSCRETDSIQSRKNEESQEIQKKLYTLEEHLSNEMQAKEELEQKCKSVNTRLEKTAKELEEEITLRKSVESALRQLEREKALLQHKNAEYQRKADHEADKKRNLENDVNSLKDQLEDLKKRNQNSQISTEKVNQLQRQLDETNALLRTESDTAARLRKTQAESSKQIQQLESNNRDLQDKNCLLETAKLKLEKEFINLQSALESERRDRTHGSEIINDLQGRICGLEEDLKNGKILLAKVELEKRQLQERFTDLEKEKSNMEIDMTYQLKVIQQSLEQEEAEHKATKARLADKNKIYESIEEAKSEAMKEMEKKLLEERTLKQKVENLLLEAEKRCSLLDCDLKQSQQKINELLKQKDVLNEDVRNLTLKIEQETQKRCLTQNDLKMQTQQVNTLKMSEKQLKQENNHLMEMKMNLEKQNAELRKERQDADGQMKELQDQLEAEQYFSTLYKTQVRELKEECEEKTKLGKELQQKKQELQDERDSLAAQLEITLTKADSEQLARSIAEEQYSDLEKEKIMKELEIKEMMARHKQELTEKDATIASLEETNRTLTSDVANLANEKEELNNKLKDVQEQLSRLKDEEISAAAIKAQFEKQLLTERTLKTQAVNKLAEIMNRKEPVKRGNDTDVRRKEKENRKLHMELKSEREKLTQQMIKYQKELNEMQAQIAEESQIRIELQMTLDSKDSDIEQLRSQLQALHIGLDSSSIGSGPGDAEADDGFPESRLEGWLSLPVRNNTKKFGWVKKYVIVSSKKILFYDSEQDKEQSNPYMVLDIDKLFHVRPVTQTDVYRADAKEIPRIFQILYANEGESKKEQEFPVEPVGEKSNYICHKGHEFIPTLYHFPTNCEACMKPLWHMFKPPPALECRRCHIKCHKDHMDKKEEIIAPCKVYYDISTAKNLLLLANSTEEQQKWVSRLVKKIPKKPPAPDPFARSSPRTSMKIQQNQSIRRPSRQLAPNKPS
For a further data set, the target named is Sp1 (Homo sapiens, UniProt P08047). In words: Bio-CA pull-down, Sp1.
Chain of Sp1 (P08047 whole entry): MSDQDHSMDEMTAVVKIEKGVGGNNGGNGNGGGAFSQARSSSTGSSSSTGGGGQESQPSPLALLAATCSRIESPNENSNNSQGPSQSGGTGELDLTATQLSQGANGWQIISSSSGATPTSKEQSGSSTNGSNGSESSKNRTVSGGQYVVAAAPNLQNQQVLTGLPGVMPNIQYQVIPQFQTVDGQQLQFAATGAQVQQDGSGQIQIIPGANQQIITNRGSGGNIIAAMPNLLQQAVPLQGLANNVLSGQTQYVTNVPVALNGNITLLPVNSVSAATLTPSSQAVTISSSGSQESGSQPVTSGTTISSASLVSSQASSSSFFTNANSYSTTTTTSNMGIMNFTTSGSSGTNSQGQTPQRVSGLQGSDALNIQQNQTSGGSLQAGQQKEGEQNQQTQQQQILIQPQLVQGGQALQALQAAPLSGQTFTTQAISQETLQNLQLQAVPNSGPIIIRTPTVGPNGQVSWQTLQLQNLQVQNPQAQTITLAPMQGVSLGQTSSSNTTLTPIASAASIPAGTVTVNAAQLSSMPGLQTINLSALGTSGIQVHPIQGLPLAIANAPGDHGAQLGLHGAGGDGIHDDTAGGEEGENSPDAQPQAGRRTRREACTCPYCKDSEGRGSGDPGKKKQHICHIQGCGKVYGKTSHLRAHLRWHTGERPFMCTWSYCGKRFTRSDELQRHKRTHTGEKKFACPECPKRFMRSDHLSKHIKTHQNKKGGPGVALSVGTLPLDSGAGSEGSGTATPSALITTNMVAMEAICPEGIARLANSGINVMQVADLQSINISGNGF
Another data set has as its system RNA polymerase. Kind of data set: Bio-CA pull-down, RNA polymerase.
Data set [7] concerns the target CDK11 (Homo sapiens, UniProt P21127). Kind of data set: Biotinylated compound pull-down of CDK11. Format: binding. The arrangement: expressed in transfected cells; host or cells: HEK293T. The method, then:
as §1, §2

Chain of CDK11 (Homo sapiens, UniProt Q9BWU1) (Q9BWU1 whole entry): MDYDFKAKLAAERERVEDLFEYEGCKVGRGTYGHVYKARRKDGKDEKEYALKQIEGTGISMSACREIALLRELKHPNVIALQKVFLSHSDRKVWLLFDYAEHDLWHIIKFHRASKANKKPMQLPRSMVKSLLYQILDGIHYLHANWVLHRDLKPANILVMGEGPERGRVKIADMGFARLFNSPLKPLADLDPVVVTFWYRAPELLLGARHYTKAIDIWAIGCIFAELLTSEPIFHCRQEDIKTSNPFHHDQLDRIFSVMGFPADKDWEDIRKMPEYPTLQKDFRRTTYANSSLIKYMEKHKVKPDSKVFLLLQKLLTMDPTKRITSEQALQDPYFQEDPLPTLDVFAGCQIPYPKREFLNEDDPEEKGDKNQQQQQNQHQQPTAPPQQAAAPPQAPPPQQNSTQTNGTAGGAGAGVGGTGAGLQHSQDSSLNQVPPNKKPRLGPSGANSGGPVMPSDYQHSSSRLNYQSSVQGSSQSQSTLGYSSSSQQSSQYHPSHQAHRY
Chain of CDK11 (Homo sapiens, UniProt P21127) (P21127 whole entry): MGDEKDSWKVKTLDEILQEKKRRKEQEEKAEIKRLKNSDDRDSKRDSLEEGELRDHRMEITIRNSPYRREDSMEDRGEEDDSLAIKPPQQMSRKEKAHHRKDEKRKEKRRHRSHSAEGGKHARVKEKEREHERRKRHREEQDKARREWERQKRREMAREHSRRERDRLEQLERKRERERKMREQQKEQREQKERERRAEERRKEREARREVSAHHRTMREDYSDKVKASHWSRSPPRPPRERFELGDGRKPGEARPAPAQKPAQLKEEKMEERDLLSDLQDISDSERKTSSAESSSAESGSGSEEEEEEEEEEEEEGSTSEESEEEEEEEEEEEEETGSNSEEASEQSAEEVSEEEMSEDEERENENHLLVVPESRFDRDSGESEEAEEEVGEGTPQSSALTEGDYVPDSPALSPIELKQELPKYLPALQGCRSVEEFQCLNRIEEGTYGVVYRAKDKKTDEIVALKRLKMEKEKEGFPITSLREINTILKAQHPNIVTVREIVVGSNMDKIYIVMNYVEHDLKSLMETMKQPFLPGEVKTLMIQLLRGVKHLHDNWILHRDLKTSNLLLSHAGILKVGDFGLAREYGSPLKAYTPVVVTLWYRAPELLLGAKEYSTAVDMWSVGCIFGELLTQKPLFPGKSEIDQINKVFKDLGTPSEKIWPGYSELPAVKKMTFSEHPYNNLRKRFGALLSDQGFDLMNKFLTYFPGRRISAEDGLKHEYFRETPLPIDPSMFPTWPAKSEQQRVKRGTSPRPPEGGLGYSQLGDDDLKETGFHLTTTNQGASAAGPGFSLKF
Method for Sp1: HEK293T cells were transfected with wt-Tat101-flag, vvtTat86-flag, Tat86mutant-TAR domain, CDK11-flag or 9G8-flag as negative control. Forty hours later, protein extracts were incubated with DYNABEADS® MYONE™ Streptavidin T1 coated with either biotin or Biotinylated-CA. Pulled down proteins analyzed by Western blot with the indicated antibodies.

With `CC(C)(C)NC(=O)[C@@H]1C[C@@H]2CCCC[C@@H]2CN1C[C@@H](O)[C@H](Cc1ccccc1)NC(=O)[C@H](CC(N)=O)NC(=O)c1ccc2ccccc2n1` [saquinavir, reference compound], in the data set on HIV-1 pNL43, the “EC50, HIV-1 replication in primary cells (PBMCs)” value is “similar”.

As to `CN(C)[C@H]1C[C@@]23CC[C@@]4(O2)C(=CC[C@]2(C)C(c5ccc6ccncc6c5)=CC[C@H]24)C=C3[C@@H](OC(=O)CCCCCNC(=O)CCCC[C@@H]2SC[C@@H]3NC(=O)N[C@@H]32)[C@@H]1O.O=C(O)C(F)(F)F.O=C(O)C(F)(F)F` [Bio-CA], the “EC50 relative to CA” value in the data set on HIV-1 pNL4-3 [1] worked out at 10 fold. For the same compound, in the data set on HeLa-CD4 cells, the “viability of the cells” value was “did not compromise the viability of the cells”.

For the compound `Cc1nnc(C(=O)NC(C)(C)c2nc(C(=O)NCc3ccc(F)cc3)c(O)c(=O)n2C)o1` [Raltegravir, reference compound], the “competition for binding of recombinant Tat to Bio-dCA” value in the data set on Tat was “not”. Also, the “EC50, HIV-1 replication in primary cells (PBMCs)” value in the data set with HIV-1 pNL43 was “similar”.

With `Cc1cn([C@H]2C[C@H](N=[N+]=[N-])[C@@H](CO)O2)c(=O)[nH]c1=O` [AZT, zidovudine, reference compound], the 50% effective concentration (EC50) with HIV-1 pNL4-3 [2] was found to be 5.2 nM.

Take `CN(C)C1CC23CCC4(O2)C(=CCC2(C)C(c5ccc6ccncc6c5)CCC42)C=C3C(O)C1O` (stereo not shown) [CA, Cortistatin A]: the “EC50 for the inhibition of HIV activity” value in the data set on HIV-1 pNL4-3 [1] is listed as “picomolar to low nanomolar range”. Further, the “competition for binding of recombinant Tat to Bio-dCA” value with Tat was “competed”. Also, the “interaction with Tat (pull-down)” value in the data set on Tat (flag-tagged Tat expressed in cells or recombinant Tat) is on record as “interacts”. The “interaction with TAR-nonbinding basic region Tat mutant (pull-down)” value in data set [3] is listed as “not”. Besides, the “interaction with DNA-PK” value in [4] was “seems to interact”. Further, the “transcription activity from CMV and MLV promoters” value with CMV and MLV promoters is given as “reduces the transcription activity”. Moreover, the IC50 in data set [5] was 350 nM. For the same compound, the dissociation constant Kd at CDK11 [6] was 10 ± 2 nM; on CDK8 it was 17 ± 2 nM; at ROCK II, 220 ± 2 nM. Moreover, the “interaction with Sp1” value on Sp1 is listed as “not observed”. Further, the “pull down of RNA polymerase” value with RNA polymerase is “shown to pull down”. At CDK11 [7], the “interaction with CDK11 (pull-down)” value is on record as “did not interact”.
